Measurements taken from patent US20070004736A1, “Imidazole derivative, process for producing the same, and use” (priority 2002, published 2007).
Where a name gives a salt, the structure may show the parent alone.

molecular target: human FXa (Homo sapiens, UniProt P00742); test: Human activated blood coagulation factor X (FXa) inhibitory activity; type: biochemical; conditions: concentration at which 50% of FXa activity was inhibited; substrate S-2765, 37° C., absorbance at 405 nm
Method: (1) Human Activated Blood Coagulation Factor X (FXa) Inhibitory Activity
Experimental method: 225 μl of a 0.05 M Tris-HCl buffer (pH 8.3) containing 0.145 M sodium chloride and 2 mM calcium chloride, 5 μl of a sample (a test compound was dissolved in dimethyl sulfoxide) and 10 μl of human FXa (0.3 unit/ml) were added to a 96-well microplate and incubated at 37° C. for about 10 minutes. Then, 10 μl of a substrate (3 mM, S-2765) was added to the plate and incubated at 37° C. for 10 minutes. After stopping the reaction by adding 25 μl of a 50% aqueous acetic acid, a change in absorbance at 405 nm was measured with a spectrophotometer, and the concentration (IC50) at which 50% of FXa activity was inhibited was calculated.

human FXa, sequence (P00742 235-488 limits assumed): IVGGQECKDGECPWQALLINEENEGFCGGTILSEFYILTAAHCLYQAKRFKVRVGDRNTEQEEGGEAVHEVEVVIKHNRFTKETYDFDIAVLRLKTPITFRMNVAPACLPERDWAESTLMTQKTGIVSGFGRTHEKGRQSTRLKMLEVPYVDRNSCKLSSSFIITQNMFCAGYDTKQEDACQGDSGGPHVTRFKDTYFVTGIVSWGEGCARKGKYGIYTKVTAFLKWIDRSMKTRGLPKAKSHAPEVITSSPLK
human FXa, sequence (P00742 41-179 partner limits assumed): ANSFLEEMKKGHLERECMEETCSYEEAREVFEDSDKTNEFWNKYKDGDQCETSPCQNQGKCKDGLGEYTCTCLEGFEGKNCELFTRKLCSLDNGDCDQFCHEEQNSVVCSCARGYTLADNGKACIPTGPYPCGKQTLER

Cc1nccn1CCC1CCN(C(=O)CCS(=O)(=O)c2ccc3cc(Cl)ccc3c2)CC1 [Example 102, 1-{3-[(6-Chloro-2-naphthyl)sulfonyl]propanoyl}-4-[2-(2-methyl-1H-imdazol-1-yl)ethyl]piperidine hydrochloride] and Cc1nc(C)n(CCC2CCN(C(=O)CCS(=O)(=O)c3ccc4cc(Cl)ccc4c3)CC2)c1C [Example 109, 1-{3-[(6-Chloro-2-naphthyl)sulfonyl]propanoyl}-4-[2-(2,4,5-trimethyl-1H-imidazol-1-yl)ethyl]piperidine] are within 1.5-fold of each other in IC50: 43 nM for the first, 45 nM for the second.

Compared with Cc1ncc(C2CCN(C(=O)CCS(=O)(=O)c3ccc4cc(Cl)ccc4c3)CC2)n1C [Example 24, 1-{3-[(6-Chloro-2-naphthyl)sulufonyl]propanoyl}-4-(1,2-dimethyl-1H-imidazol-5-yl)piperidine], Cc1ncc2n1CCN(C1CCN(C(=O)CCS(=O)(=O)c3ccc4cc(Cl)ccc4c3)CC1)C2=O [Example 38, 7-(1-{3-[(6-Chloro-2-naphthyl)sulfonyl]propanoyl}-4-piperidinyl)-3-methyl-6,7-dihydroimidazo[1,5-a]pyrazin-8(5H)-one] is 2.8-fold lower in IC50: 31 nM for the first, 11 nM for the second. The second is the more potent here.

Going from Cc1ncn2c1C(=O)N(C1CCN(C(=O)CCS(=O)(=O)c3ccc4cc(Cl)ccc4c3)CC1)CC2 [Example 39, 7-(1-{3-[(6-Chloro-2-naphthyl)sulfonyl]propanoyl}-4-piperidinyl)-1-methyl-6,7-dihydoroimidazo[1,5-a]pyrazin-8(5H)-one] to CCc1ncc2n1C(=O)N(C1CCN(C(=O)CCS(=O)(=O)c3ccc4cc(Cl)ccc4c3)CC1)C2 [Example 42, 2-(1-{3-[(6-Chloro-2-naphthyl)sulfonyl]propanoyl}-4-piperidinyl)-5-ethyl-1,2-dihydro-3H-imidazo[1,5-c]imidazol-3-one], the IC50 falls from 11 nM to 7.1 nM (1.5-fold).

In the case of Cc1nc(C)n2c1CN(C1CCN(C(=O)CCS(=O)(=O)c3ccc4cc(Cl)ccc4c3)CC1)C2=O [Example 72, 2-(1-{3-[(6-Chloro-2-naphthyl)sulfonyl]propanoyl}-4-piperidinyl)-5,7-dimethyl-1,2-dihydro-3H-imidazo[1,5-c]imidazol-3-one], the IC50 is reported as 7.2 nM.
